Patent US12459951B2, “Compounds that interact with RAS superfamily proteins for treatment of cancers, inflammatory diseases, rasopathies, and fibrotic disease” (SHY Therapeutics, LLC, priority 2022, dated 2025)

Experiments:
Akt phosphorylation = experiment: Akt Phosphorylation Assay (western blot), Panc-1; type: cell-based, human; settings: at 10 μM, * = activation
Method in brief: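 Phospho-Akt (Ser473) was measured by western blot in lysates of KRas G12D Panc-1 cells exposed to test compound for 6 h at 37 °C, either at 10 μM final with 0.3% DMSO or as serial dilutions for IC50. One format used overnight 0.5% FBS starvation followed by a 15 min pulse of 1.5 ng/ml EGF. The other used cells in 10% FBS with no stimulation.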

IL6 = experiment: IL-6 Quantification Assay (ELISA), LPS-stimulated RAW 264.7; type: cell-based; design: inhibition: dose or concentration left out as unconfirmed; settings: Mus musculus, RAW264.7; read-out: IL-6: % inh.
[1] = tested on: Smad2/Smad3 phosphorylation; experiment: Phospho-Smad2/3 Inhibition Assay (western blot), Panc-1; type: cell-based, human; settings: at 10 μM, Panc-1 pancreatic cancer cell line; starred symbols = activation
Method in brief: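 Western blotting of lysates (15-50 μg protein) read phosphorylation of Smad2 Ser465/467 and Smad3 Ser423/425. Before lysis, Panc-1 cells got 1 h of 10 ng/ml TGF-b1 following 3 h compound exposure at 37° C (10 μM final, or serial dilutions for IC50, 0.3% DMSO) after overnight 0.5% FBS starvation.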

COCc1csc(Nc2nc(-c3nccn3C)nn3cc(-c4ccn(C(C)C)n4)c(C)c23)n1 [Compound 79, N-(6-(1-Isopropyl-1H-pyrazol-3-yl)-5-methyl-2-(1-methyl-1H-imidazol-2-yl)pyrrolo[2,1-f][1,2,4]triazin-4-yl)-4-(methoxymethyl)thiazol-2-amine]
% inh of Akt phosphorylation in Panc-1 (Akt phosphorylation): D* (85-100% activation)
inhibition (IL6): 1 to 24%
% inh of Smad2/3 phosphorylation in Panc-1 [1]: B* (B* = 26-45% activation)

COc1ncc(Nc2nc(-c3nccn3C)nn3cc(-c4ccn(C(C)C)n4)c(C)c23)cn1 [Compound 80, 6-(1-Isopropyl-1H-pyrazol-3-yl)-N-(2-methoxypyrimidin-5-yl)-5-methyl-2-(1-methyl-1H-imidazol-2-yl)pyrrolo[2,1-f][1,2,4]triazin-4-amine]
% inh of Akt phosphorylation in Panc-1 (Akt phosphorylation): D* (85-100% activation)
inhibition (IL6): 0%
% inh of Smad2/3 phosphorylation in Panc-1 [1]: B* (B* = 26-45% activation)

Cc1c(-c2ccn(C(C)C)n2)cn2nc(-c3nccn3C)nc(Nc3nnc(C4CC4)[nH]3)c12 [Compound 81, N-(5-Cyclopropyl-4H-1,2,4-triazol-3-yl)-6-(1-isopropyl-1H-pyrazol-3-yl)-5-methyl-2-(1-methyl-1H-imidazol-2-yl)pyrrolo[2,1-f][1,2,4]triazin-4-amine]
% inh of Akt phosphorylation in Panc-1 (Akt phosphorylation): D* (85-100% activation)
inhibition (IL6): 75 to 100%
% inh of Smad2/3 phosphorylation in Panc-1 [1]: A* (A* = 1-25% activation)

COc1cnc(Nc2nc(-c3nccn3C)nn3cc(-c4ccn(C(C)C)n4)c(C)c23)cn1 [Compound 83, 6-(1-Isopropyl-1H-pyrazol-3-yl)-N-(5-methoxypyrazin-2-yl)-5-methyl-2-(1-methyl-1H-imidazol-2-yl)pyrrolo[2,1-f][1,2,4]triazin-4-amine]
% inh of Akt phosphorylation in Panc-1 (Akt phosphorylation): D* (85-100% activation)
inhibition (IL6): 25 to 49%
% inh of Smad2/3 phosphorylation in Panc-1 [1]: B* (B* = 26-45% activation)

Cc1c(-c2ccn(C(C)C)n2)cn2nc(-c3nccn3C)nc(Nc3ccn(C4CC4)n3)c12 [Compound 84, N-(1-Cyclopropyl-1H-pyrazol-3-yl)-6-(1-isopropyl-1H-pyrazol-3-yl)-5-methyl-2-(1-methyl-1H-imidazol-2-yl)pyrrolo[2,1-f][1,2,4]triazin-4-amine]
% inh of Akt phosphorylation in Panc-1 (Akt phosphorylation): D* (85-100% activation)
inhibition (IL6): 25 to 49%
% inh of Smad2/3 phosphorylation in Panc-1 [1]: C* (C* = 46-75% activation)

COc1ncccc1Nc1nc(-c2nccn2C)nn2cc(-c3ccn(C(C)C)n3)c(C)c12 [Compound 85, 6-(1-Isopropyl-1H-pyrazol-3-yl)-N-(2-methoxypyridin-3-yl)-5-methyl-2-(1-methyl-1H-imidazol-2-yl)pyrrolo[2,1-f][1,2,4]triazin-4-amine]
% inh of Akt phosphorylation in Panc-1 (Akt phosphorylation): D* (85-100% activation)
inhibition (IL6): 75 to 100%
% inh of Smad2/3 phosphorylation in Panc-1 [1]: D (D = 76-100% inhibition)

COc1nccc(Nc2nc(-c3nccn3C)nn3cc(-c4ccn(C(C)C)n4)c(C)c23)n1 [Compound 86, 6-(1-Isopropyl-1H-pyrazol-3-yl)-N-(2-methoxypyrimidin-4-yl)-5-methyl-2-(1-methyl-1H-imidazol-2-yl)pyrrolo[2,1-f][1,2,4]triazin-4-amine]
% inh of Akt phosphorylation in Panc-1 (Akt phosphorylation): D* (85-100% activation)
inhibition (IL6): 75 to 100%
% inh of Smad2/3 phosphorylation in Panc-1 [1]: B* (B* = 26-45% activation)

COc1cc(Nc2nc(-c3nccn3C)nn3cc(-c4ccn(C(C)C)n4)c(C)c23)ccn1 [Compound 87, 6-(1-Isopropyl-1H-pyrazol-3-yl)-N-(2-methoxypyridin-4-yl)-5-methyl-2-(1-methyl-1H-imidazol-2-yl)pyrrolo[2,1-f][1,2,4]triazin-4-amine]
% inh of Akt phosphorylation in Panc-1 (Akt phosphorylation): D* (85-100% activation)
inhibition (IL6): 0%
% inh of Smad2/3 phosphorylation in Panc-1 [1]: B* (B* = 26-45% activation)
